Read-outs that look alike come from different tables or passages of the source.
Biological target: T1, Syk kinase (Homo sapiens, UniProt P43405)
T1 construct: purchased
Test: Syk kinase inhibition, Caliper LabChip off-chip mobility-shift kinase assay
Assay type: biochemical
Settings: read-out: Syk Enzyme IC50
Description: Compounds of the examples and Table 1 provided herein were assayed to measure their capacity to inhibit Syk kinase.
Compounds of the examples and Table 1 provided herein were assessed for their ability to inhibit Syk kinase by utilizing Caliper Life Sciences' proprietary LabChip™ technology. The off-chip incubation mobility-shift kinase assay uses a microfluidic chip to measure the conversion of a fluorescent peptide substrate to a phosphorylated product. The reaction mixture, from a microtiter plate well, is introduced through a capillary sipper onto the chip, where the nonphosphorylated substrate and phosphorylated product are separated by electrophoresis and detected via laser induced fluorescence. […] The phosphorylated product migrates through the chip faster than the non-phosphorylated substrate, and signals from the two forms of the peptide appear as distinct peaks. Caliper's data analysis software (HTSWA) determines peak heights, from which the ratio of product to the peak sum P/(P+S) and percent (%) conversion is calculated. This value is used to compare compound wells to control wells present on the plate, and thereby determine the % inhibition values for the compound. The formula used to calculate % inhibition is as follows, where C100% is the average % conversion of the 100% activity wells and Co% is the average % conversion of the 0% activity wells: (1−(% conversionofsample−C0%)/(C100%−C0%))*100.
Compounds (10 mM stocks in 100% DMSO) are diluted to a final concentration of 5 μM for single point inhibition experiments, and a series dilution of 10, 3, 1, 0.3, 0.1, 0.03, 0.01, 0.003, 0.001, 0.0003, 0.0001, and 0.00003 μM were made for IC50 determination. Generally, 12 μL of enzyme buffer containing purified kinase (various amount; various suppliers), 100 mM HEPES, pH 7.5, 1 mM DTT (Calbiochem, 2333153), 10 mM MgCl2 (Sigma, M-1028) or 10 mM MnCl2 (Sigma, M-1787) (assay specific), and 0.002% Brij-35 (Sigma, B4184) are added to each well. Compound and enzyme are allowed to pre-incubate for 15 minutes. 12 μL of peptide/ATP buffer containing 100 mM HEPES, pH 7.5, 1.5 μM fluorescein-labeled peptide (specific to kinase of interest), ATP (at KM apparent, Sigma, A9187), and 0.002% Brij-35 is then added to each well to initiate the reaction. The final concentration of DMSO in the well is 4%. Generally, reactions are incubated for 1 to 1.5 hours at room temperature to obtain adequate conversion of peptide to phosphorylated product in the linear range of the reaction. Reactions are terminated with the addition of 45 μL of Stop Buffer (containing 20 mM EDTA). Plates are then read on the LabChip 3000 using a 12-sipper LabChip. % conversion values and % inhibition values are obtained as provided and IC50 curves of compounds are generated using GraphPad Prism Version 4 or 5.01, or XLfit Version 4.3.2. When using GraphPad Prism, a nonlinear curve fit using the sigmoidal dose response—variable slope fit was used to graph IC50 curves and determine IC50 values and hillslopes. When using XLfit, Fit Model 205 (4-Parameter Logistic Model) is used to generate and fit the IC50 curve.

| Compound | IC50 [nM] | IC50 (Caliper LabChip assay) [nM] |
| --- | --- | --- |
| COc1cncc(-c2cc3cc[nH]c(=O)c3c(Nc3ccc(C4CCN(CCC#N)CC4)c(C)c3)n2)n1 [compound 128] | 79 |  |
| CC(C)Nc1nc(Nc2cc(Cl)ccn2)cc2cc[nH]c(=O)c12 [compound 484] | 54 |  |
| COc1ccc(Nc2nc(Nc3cc(C)ccn3)cc3ccn(C)c(=O)c23)cc1 [compound 364] | 228 |  |
| Cc1nc(-c2cc3cc[nH]c(=O)c3c(Nc3ccc(N4C[C@@H](C)O[C@@H](C)C4)nc3)n2)cnc1N [compound 19] | 222 |  |
| CCn1ccc2cc(Nc3cnccn3)nc(NC3CCC(=O)CC3)c2c1=O [compound 969] |  | 81 |
| COc1cncc(-c2cc3cc[nH]c(=O)c3c(Nc3ccc(C4CCN(CCC(=O)O)CC4)c(C)c3)n2)n1 [compound 163] | 7 |  |
| COc1cncc(-c2cc3cc[nH]c(=O)c3c(Nc3ccc(C4CCN(C(=O)[C@@H](C)OC)CC4)c(C)c3)n2)n1 [compound 57] | 47 |  |
| Cc1ccnc(Nc2cc3ccn(C)c(=O)c3c(NC[C@H]3CCCO3)n2)c1 [compound 512] | 158 |  |
| COc1cncc(-c2cc3cc[nH]c(=O)c3c(Nc3ccc(CCN4CCN(CCC#N)CC4)cc3)n2)n1 [compound 66] | 55 |  |
| CCn1ccc2cc(Nc3cnccn3)nc(NC3CCCC(O)C3)c2c1=O (stereo not shown) [compound 973] |  | 26 |
| CC(C)(C)Nc1nc(Nc2cc(N3CC(O)C3)ncn2)cc2ccn(CCO)c(=O)c12 [compound 631] |  | 233 |
| CCOC(=O)CCc1cc2cc[nH]c(=O)c2c(Nc2ccc(N3CCOCC3)cc2)n1 [compound 245] | 295 |  |
| Cc1ccnc(Nc2cc3ccn(C)c(=O)c3c(Nc3ccc(S(C)(=O)=O)cc3)n2)c1 [compound 332] | 78 |  |
| Cc1ccnc(Nc2cc3cc[nH]c(=O)c3c(Nc3ccc(N4CCO[C@H](C)C4)c(C)c3)n2)c1 [compound 584] | 2680 |  |
| COCCNC(=O)C(C)N1CCC(c2ccc(Nc3nc(-c4cncc(OC)n4)cc4cc[nH]c(=O)c34)cc2C)CC1 (stereo not shown) [compound 123] | 150 |  |
| Cn1cc(Cl)c2cc(Nc3cnccn3)nc(N[C@H]3CC[C@@H](O)CC3)c2c1=O [compound 785] |  | 144 |
| COCCN1CCC(c2ccc(Nc3nc(-c4cncnc4)cc4cc[nH]c(=O)c34)cc2F)CC1 [compound 198] | 31 |  |
| COc1cncc(-c2cc3cc[nH]c(=O)c3c(Nc3ccc(C4CCN(CCC#N)C4)cc3)n2)n1 (stereo not shown) [compound 65] | 30 |  |
| Cc1ccnc(Nc2cc3cc[nH]c(=O)c3c(NCC3CCNCC3)n2)c1 [compound 554] | 86 |  |
| CC(=O)c1cc(Nc2cc3ccn(CCO)c(=O)c3c(NC(C)(C)C)n2)ncn1 [compound 633, 6-(6-acetylpyrimidin-4-ylamino)-8-(tert-butylamino)-2-(2-hydroxyethyl)-2,7-naphthyridin-1(2H)-one] |  | 273 |
| Cn1cc(-c2ccnc(Nc3cc4ccn(CCO)c(=O)c4c(NC(C)(C)C)n3)c2)cn1 [compound 830] |  | 103 |
| [2H]C([2H])([2H])n1ccc2cc(Nc3cnccn3)nc(NC(C)(C)C)c2c1=O [compound 469] | 97 |  |
| CC(C)(C)Nc1nc(-c2cnc(N)nc2)cc2ccn(CCO)c(=O)c12 [compound 899] |  | 17 |
| CCn1ccc2cc(Nc3cc(C)ccn3)nc(N[C@H]3CCC[C@@H]3O)c2c1=O [compound 422] | 86.1 |  |
| COc1cncc(-c2cc3cc[nH]c(=O)c3c(Nc3ccc(C4CCN(CCF)CC4)c(C)c3)n2)n1 [compound 79] | 27 |  |
| COc1cncc(-c2cc3cc[nH]c(=O)c3c(Nc3ccc(C4CCN(CC(=O)N5CCCC5)CC4)c(C)c3)n2)n1 [compound 156] | 41 |  |
| CCn1ccc2cc(Nc3nccc(O)n3)nc(NC[C@@H]3CC[C@@H](O)C3)c2c1=O [compound 959] |  | 41 |
| CC(C)(C)Nc1nc(-c2cnc(N)nc2)cc2cc[nH]c(=O)c12 [compound 894] |  | 5 |

| Compound | IC50 [nM] | IC50 (Caliper LabChip assay) [nM] |
| --- | --- | --- |
| COc1cncc(-c2cc3c(F)c[nH]c(=O)c3c(Nc3ccc(N4CCOCC4)cc3)n2)n1 [compound 432] | 623 |  |
| CC(C)(C)Nc1nc(Nc2cc(OCCO)ccn2)cc2ccn(CCO)c(=O)c12 [compound 866] |  | 11 |
| O=c1c2c(N[C@H]3CC[C@@H](O)CC3)nc(Nc3cc(Cl)ccn3)cc2ccn1CCO [compound 384] | 17 |  |
| CC(C)(C)Nc1nc(Nc2cc(C(C)(C)C(=O)O)ccn2)cc2ccn(CCO)c(=O)c12 [compound 861] |  | 169 |
| CC1(Cn2ccc3cc(-c4cnc(N)nc4)nc(NC4CCOCC4)c3c2=O)COC1 [compound 769] |  | 66 |
| COCCn1ccc2cc(Nc3cnccn3)nc(NC(C)C)c2c1=O [compound 319] | 137 |  |
| Cc1ccnc(Nc2cc3ccn(CCO)c(=O)c3c(NC3(C)CCC3)n2)c1 [compound 599] |  | 286 |
| Cc1ccnc(Nc2cc3cc[nH]c(=O)c3c(N3CCCC3)n2)c1 [compound 269] | 554 |  |
| CCn1ccc2cc(Nc3cc(C)ccn3)nc(N[C@H]3CC[C@H](O)C3)c2c1=O [compound 945] |  | 23 |
| COCC(COC)n1ccc2cc(-c3cnc(N)nc3)nc(NC(C)(C)C)c2c1=O [compound 936] |  | 15 |
| Nc1ncc(-c2cc3cc[nH]c(=O)c3c(N3CCCC3)n2)cn1 [compound 181] | 15 |  |
| CC(C)C(C)Nc1nc(Nc2ccccn2)cc2cc[nH]c(=O)c12 (stereo not shown) [compound 278] | 2210 |  |
| COCCN1CCC(c2ccc(Nc3nc(-c4ccc(C)nc4)cc4cc[nH]c(=O)c34)cc2C)CC1 [compound 47] | 12 |  |
| CCn1ccc2cc(Nc3cnccn3)nc(N[C@H]3CCC[C@H]3O)c2c1=O [compound 421] | 23.6 |  |
| O=c1c2c(N[C@H]3CC[C@@H](O)CC3)nc(Nc3cnccn3)cc2ccn1CC(F)(F)F [compound 1025] |  | 16 |
| Cc1ccnc(Nc2cc3ccn(C)c(=O)c3c(Nc3ccc(C(=O)N4CCOCC4)cc3)n2)c1 [compound 500] | 69 |  |
| COc1cncc(-c2cc3cc[nH]c(=O)c3c(Nc3ccc(C4CN(CCS(C)(=O)=O)C4)cc3)n2)n1 [compound 148] | 22 |  |
| CC(C)(C)Nc1nc(Nc2cc(-c3nc(CO)cs3)ccn2)cc2ccn(CCO)c(=O)c12 [compound 843] |  | 82 |
| Cc1ccnc(Nc2cc3ccn(C(C)C)c(=O)c3c(N[C@H]3CC[C@H](O)CC3)n2)c1 [compound 964] |  | 51 |
| CC(C)(C)Nc1nc(Nc2cc(-c3ccccc3)ccn2)cc2ccn(CCO)c(=O)c12 [compound 829] |  | 271 |
| CC(C)(C)Nc1nc(Nc2cc(-c3ccc4cn[nH]c4c3)ccn2)cc2ccn(CCO)c(=O)c12 [compound 850] |  | 559 |
| CCn1ccc2cc(Nc3cc(C)ccn3)nc(NC[C@H]3CC[C@H](O)C3)c2c1=O [compound 410] | 120 |  |
| CC(C)(C)Nc1nc(Nc2cc(C(C)(C)C(N)=O)ccn2)cc2ccn(CCO)c(=O)c12 [compound 862] |  | 579 |
| COCC(O)CN1CCC(c2ccc(Nc3nc(-c4cncc(OC)n4)cc4cc[nH]c(=O)c34)cc2C)CC1 (stereo not shown) [compound 142] | 7 |  |
| NC(=O)Cn1ccc2cc(-c3cnc(N)nc3)nc(N[C@H]3C[C@@H](CO)C3)c2c1=O [compound 746] |  | 44 |
| CC(C)(C)Nc1nc(-c2cnc(N)nc2)cc2ccn(C(CO)CO)c(=O)c12 [compound 922] |  | 6 |
| CC(C)(C)Nc1nc(Nc2cc(C3(O)CCC3)ccn2)cc2ccn(CCO)c(=O)c12 [compound 870] |  | 76 |

— patent US20110053897A1 (IRM LLC, priority 2009, published 2011)
